Data on 2 compounds can be found in patent publication US12357632B2, “Methods of treating cholangiocarcinoma” (QED Therapeutics, Inc., priority 2019, dated 2025).

Series [1] can be described thus: Tolerability (body weight, clinical observations) in Vex-MR086M1 xenograft study. It counts as in vivo, Mouse (Mus musculus). The procedure:
(§1) All animals were weighed at the same time as tumor size measurement. A Relative Body Weight loss (RBW loss) was considered as adverse effect of the treatment.
(§2) Mice were observed every day for physical appearance, behavior and clinical changes.
(§3) Relative Body Weight (RBW) is calculated for each measurement by dividing the body weight by the body weight at the start of treatment.
(§4) Individual Body weight loss percent (% BWL)=100−(BWX/BW0×100), where BWX is the BW at any day during the treatment and BW0 is the BW on the day of inclusion.
(§5) Mean Body weight loss percent (% BWL)=100−(mean BWX/mean BW0×100), where BWX is the mean BW at any day during the treatment and BW0 is the mean BW on the day of inclusion.

A short description of series [2]: Tolerability (body weight, clinical observations) in UREx-MR2057PD-AR xenograft study. It counts as in vivo, Mouse (Mus musculus). The procedure:
as §1, §2, §3, §4, §5

The test system of series [3] is advanced or metastatic cholangiocarcinoma with FGFR genetic alterations. Nature of the series: Phase II study of oral BGJ398 in advanced or metastatic cholangiocarcinoma, Patient 5010004 (RECIST v1.1). Format: in vivo, human. The settings on record: Patient 5010004, oral erdafitinib prior to study treatment. On the procedure:
This is a multi-center, open label, single arm phase II study evaluating BGJ398 anti-tumor activity in advanced or metastatic cholangiocarcinoma patients with FGFR genetic alterations. 125 mg of oral, monotherapy BGJ398 is administered once daily for the first 3 weeks (21 days) of each 28-day cycle. The starting dose of 125 mg may be reduced to 100 mg, 75 mg, or 50 mg. The treatment period begins on Cycle 1, Day 1, and continues until disease progression, unacceptable toxicity, withdrawal of informed consent, or death. Patients are evaluated for tumor response radiographically every 8 weeks until disease progression or discontinuation from study using RECIST v1.1 criteria.
Adult patients with histologically or cytologically confirmed advanced or metastatic cholangiocarcinoma with FGFR2 gene fusions or translocations or other FGFR genetic alteration who have evidence of radiologic progression following a cisplatin- and gemcitabine-containing regimen for advanced disease or a gemcitabine-containing regimen for those who are considered intolerant to cisplatin are enrolled. Up to approximately 160 adult patients over age 18, both male and female are enrolled. Three cohorts of patients comprise the study population: • Cohort 1: ˜120 patients, 108 with FGFR2 gene fusions or translocations and 12 with other FGFR genetic alterations. • Cohort 2: ˜20 patients with FGFR genetic alterations other than FGFR2 gene fusions or translocations. • Cohort 3: Up to ˜20 patients with FGFR2 gene fusions or translocations who have received a prior FGFR inhibitor. Main Inclusion Criteria
Tumor response according to RECIST v1.1, and survival.
During treatment with infigratinib, the patient's response was determined by follow-up assessments conducted by a local investigator per RECIST v1.1.

Another series concerns cholangiocarcinoma. To be noted: ABC-02 trial (Valle et al., 2010); cited from earlier work.

Each structure is given as a SMILES string.

On to `COc1cc(OC)cc(N(CCNC(C)C)c2ccc3ncc(-c4cnn(C)c4)nc3c2)c1` [Erdafitinib, reference compound], for which, in series [1] (erdafitinib 15 mg/kg PO qdx21), the clinical observations result is listed as “No relevant observable signs were reported”, the “mean body weight loss” value was “no mean body weight loss” and the “tolerability” value is “well tolerated except for 1 mouse”. Also, the “maximum individual body weight loss” value in series [1] (erdafitinib 15 mg/kg PO qdx21, on D17) is 10.6%. Besides, in series [2] (erdafitinib 15 mg/kg PO qdx21), the clinical observations entry was “No relevant observable signs were reported”, the “maximum mean body weight loss” value is listed as “no maximum mean body weight loss” and the “tolerability” value was “well tolerated”. Also, the “maximum individual body weight loss” value in series [2] (erdafitinib 15 mg/kg PO qdx21, on D3) came out at 4.9%. Moreover, in series [3], the best response result was “progressive disease” and the “time to discontinuation due to radiological disease progression” value is “approximately 2 months”.
`Nc1ccn([C@@H]2O[C@H](CO)[C@@H](O)C2(F)F)c(=O)n1` [gemcitabine]: in the series on cholangiocarcinoma, the median overall survival is reported as 8.1 months and the median progression-free survival is 5.0 months.
